Measurements published in ChEMBL document CHEMBL3044865, “Herbicidal Activity and Characteristics of Pyraflufen-ethyl for Controlling Broad-leaved Weeds in Cereals” (J Pestic Sci, 2002).
Active and inactive are the calls of the source. No cut-off for these calls is given here.

Key:
[1] = system: Galium aparine; assay: Herbicidal activity against Galium aparine assessed as killing at 3 g/ha post emergence application measured after 21 days after treatment; type: functional
[2] = target: T1, Protoporphyrinogen oxidase, chloroplastic (Nicotiana tabacum) (UniProt O24163); assay: Inhibition of Veronica hederaefolia protoporphyrinogen oxidase by post-emergence herbicidal activity assay; conditions: Veronica hederifolia
T1 sequence (whole entry): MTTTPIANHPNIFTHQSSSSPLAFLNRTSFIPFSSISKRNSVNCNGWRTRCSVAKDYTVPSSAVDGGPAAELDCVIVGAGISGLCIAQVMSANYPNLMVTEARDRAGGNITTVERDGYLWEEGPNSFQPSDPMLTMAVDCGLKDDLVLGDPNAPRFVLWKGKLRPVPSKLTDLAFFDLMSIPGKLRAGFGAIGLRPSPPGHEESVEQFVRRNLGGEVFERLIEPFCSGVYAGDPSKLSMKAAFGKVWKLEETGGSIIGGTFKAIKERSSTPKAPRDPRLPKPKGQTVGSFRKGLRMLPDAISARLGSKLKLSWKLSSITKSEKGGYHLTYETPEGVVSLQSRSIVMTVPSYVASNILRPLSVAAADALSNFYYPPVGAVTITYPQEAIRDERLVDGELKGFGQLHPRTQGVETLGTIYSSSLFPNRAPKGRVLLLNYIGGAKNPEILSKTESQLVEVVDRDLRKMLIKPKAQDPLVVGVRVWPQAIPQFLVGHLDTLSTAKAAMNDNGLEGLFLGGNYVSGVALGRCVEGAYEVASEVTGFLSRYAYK

[3] = system: Stellaria media; assay: Herbicidal activity against Stellaria media assessed as killing at 100 g/ha post emergence application measured after 21 days after treatment; type: functional
[4] = system: Triticum aestivum; assay: Phytotoxicity in Triticum aestivum (wheat) assessed as injury at 300 g/ha pre emergence application measured after 21 days after treatment; type: organism-based; conditions: in vivo, other, 504 h
[5] = system: Alopecurus myosuroides; assay: Herbicidal activity against Alopecurus myosuroides assessed as killing at 10 g/ha pre emergence application measured after 21 days after treatment; type: functional, organism-based
[6] = system: Avena fatua; assay: Herbicidal activity against Avena fatua assessed as killing at 300 g/ha post emergence application measured after 21 days after treatment; type: functional
[7] = system: Triticum aestivum; assay: Phytotoxicity in Triticum aestivum (wheat) assessed as injury at 3 g/ha post emergence application measured after 21 days after treatment; type: organism-based; conditions: in vivo, other, 504 h
[8] = system: Veronica hederifolia; assay: Herbicidal activity against Veronica hederaefolia assessed as killing at 100 g/ha post emergence application measured after 21 days after treatment; type: functional
[9] = target: T1, Protoporphyrinogen oxidase, chloroplastic (Nicotiana tabacum); assay: Inhibition of Galium aparine protoporphyrinogen oxidase by post-emergence herbicidal activity assay
[10] = system: Hordeum vulgare; assay: Phytotoxicity in Hordeum vulgare (barley) assessed as injury at 30 g/ha pre emergence application measured after 21 days after treatment; type: organism-based; conditions: in vivo, other, 504 h
[11] = system: Galium aparine; assay: Herbicidal activity against Galium aparine assessed as killing at 10 g/ha post emergence application measured after 21 days after treatment; type: functional

## CCOC(=O)COc1cc(-c2nn(C)c(OC(F)F)c2Cl)c(F)cc1Cl [PYRAFLUFEN-ETHYL]
[1]
  Activity: 100%
[2]
  ED90: 1 gAi/ha
[3]
  Activity: 90%
[4]
  Activity: 11%
[5]
  Activity: inactive
[6]
  Activity: 21%
[7]
  Activity: 1%
[8]
  Activity: 21%
[9]
  ED90: 1.5 gAi/ha
[10]
  Activity: Non-toxic
[11]
  Activity: 100%
